This is an account of results in PubChem BioAssay (NCI).

Among the test systems are A498 renal; BT-549 breast; DU-145 prostate; EKVX NSCLC; HCC-2998 colon; HT29 colon; KM12 colon; MDA-MB-435; SF-539 CNS; SW-620 colon.
Assay in all cases: NCI anticancer screen, dose series, 48 h

Structures are written as SMILES. “And” between values parts separate entries of the source, which are not always exact repeats. Equal values may be shown once.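 Values below derive from 48-hour exposures of cells grown in 96-well plates, with endpoints linearly interpolated between the two concentrations bracketing the appropriate inhibition level. Here, GI50 denotes the concentration required for 50% inhibition of growth. TGI is the concentration that stops growth completely.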 Where only a bound is given, the exact number is not on record here.

Consider `CC(C)NC[C@@H](C(=O)N1CCN(c2ncnc3c2[C@H](C)C[C@H]3O)CC1)c1ccc(Cl)cc1`, for which the GI50 is 0.396 µM and 0.24 µM in the experiment on A498 renal; 0.752 µM and 1.59 µM in the experiment on BT-549 breast; > 10 µM and 40.3 µM in the experiment on DU-145 prostate; above 10 µM in the experiment on EKVX NSCLC; 1.58 µM and 3.45 µM in the experiment with HT29 colon; 0.891 µM and 1.43 µM in the experiment on KM12 colon. For the same compound, the GI50 with MDA-MB-435 was > 10 µM and 20.9 µM; with SF-539 CNS, 0.401 µM and 0.396 µM; in the experiment with SW-620 colon, > 10 µM and 35.9 µM. Moreover, the TGI in the experiment with A498 renal is 5.88 µM and 4.3 µM; in the experiment with BT-549 breast it was > 10 µM and 56.2 µM; in the experiment on DU-145 prostate, above 100 µM; in the experiment on EKVX NSCLC, above 10 µM; in the experiment on HCC-2998 colon, above 100 µM; in the experiment on HT29 colon, above 100 µM. In addition, the TGI was above 91.9 µM in the experiment on KM12 colon; above 100 µM in the experiment on MDA-MB-435; > 10 µM and 40.1 µM in the experiment on SF-539 CNS; above 100 µM with SW-620 colon.

For the compound `COc1cc(Cl)cc(-c2nn(C(=O)NCCN3CCOCC3)cc2-c2ccncc2)c1`, the GI50 with A498 renal is 3.1 µM; in the experiment with BT-549 breast, 3.87 µM; in the experiment with DU-145 prostate, 8.46 µM; with EKVX NSCLC it was 5.57 µM; with HCC-2998 colon it was 7.77 µM; in the experiment with HT29 colon, 3.98 µM. Also, the GI50 in the experiment on KM12 colon was 3.79 µM; in the experiment on MDA-MB-435, 0.604 µM; with SF-539 CNS it was 4.57 µM; in the experiment with SW-620 colon, 4.28 µM. For the same compound, the TGI with A498 renal was 35.2 µM; in the experiment on BT-549 breast, 35.2 µM; in the experiment on DU-145 prostate it was 57.6 µM; in the experiment with EKVX NSCLC, 79.9 µM; with HCC-2998 colon it was 39.7 µM; with HT29 colon, above 100 µM. Further, the TGI in the experiment with KM12 colon is above 100 µM; in the experiment on MDA-MB-435, 3.61 µM; with SF-539 CNS, 25.9 µM; with SW-620 colon, 32.7 µM.

For the compound `COc1cc(C2c3cc4c(cc3[C@@H](Nc3ccc(C#N)cc3)C3COC(=O)[C@H]23)OCO4)cc(OC)c1O` (stereo not given in full), the TGI is 11.4 µM in the experiment with A498 renal; 33.8 µM and 7.42 µM in the experiment on BT-549 breast; 1.17 µM and 6.87 µM in the experiment on DU-145 prostate; 50 µM and 12.8 µM and > 100 µM in the experiment on EKVX NSCLC; 5.11 µM and 2.11 µM with HCC-2998 colon; 11.6 µM and 14 µM in the experiment with HT29 colon. The TGI in the experiment on MDA-MB-435 is 50 µM and > 100 µM; in the experiment with SF-539 CNS it was 11.3 µM and 3.64 µM; in the experiment with SW-620 colon, 50 µM and 75 µM and 11.4 µM. In addition, the GI50 with BT-549 breast was 1.71 µM; in the experiment with EKVX NSCLC it was 2.21 µM and 3.71 µM; with HCC-2998 colon, 1.02 µM; in the experiment on HT29 colon, 1.61 µM; with KM12 colon, 1.13 µM and 1.61 µM; with MDA-MB-435 it was 1.98 µM. The GI50 in the experiment on SF-539 CNS was 0.431 µM; in the experiment on SW-620 colon it was 0.781 µM and 0.263 µM.

For `O=C(Cn1ccc(=O)[nH]c1=O)Nc1ccc(C(=O)O)c(O)c1`, the TGI in the experiment on A498 renal, with BT-549 breast, in the experiment on DU-145 prostate, in the experiment with EKVX NSCLC, in the experiment with HT29 colon and with KM12 colon was above 100 µM throughout. In addition, the TGI in the experiment on MDA-MB-435 and in the experiment on SW-620 colon was above 100 µM each time.

Consider `CCN(Cc1ccc(F)c(F)c1)c1ccc(CO)c(Cl)c1`, for which the GI50 in the experiment with A498 renal was 0.0353 µM; in the experiment on BT-549 breast, 11.3 µM; in the experiment with DU-145 prostate, 14.8 µM; in the experiment with HCC-2998 colon it was 5.59 µM; in the experiment with HT29 colon it was 4.52 µM; in the experiment with KM12 colon, 13.9 µM. In addition, the values for the GI50 with MDA-MB-435, in the experiment on SF-539 CNS and with SW-620 colon were 17.9 µM, 13.7 µM and 0.753 µM, respectively. Also, the TGI came to 0.153 µM in the experiment with A498 renal; 25 µM in the experiment on BT-549 breast; 38.2 µM in the experiment with DU-145 prostate; 21.6 µM with HCC-2998 colon; 19.1 µM in the experiment on HT29 colon; 28.4 µM in the experiment on KM12 colon. The TGI with MDA-MB-435 worked out at 37.6 µM; in the experiment with SF-539 CNS, 27.3 µM; with SW-620 colon, 21 µM.

Turning to `C[C@H](Nc1ncnc2nc[nH]c12)c1cc2cccc(Cl)c2c(=O)n1-c1ccccc1`, the GI50 in the experiment on A498 renal was 0.0491 µM; in the experiment on BT-549 breast, 1.57 µM; with DU-145 prostate, 26.2 µM; in the experiment on HCC-2998 colon it was 28.4 µM; with HT29 colon it was 5.92 µM; in the experiment on KM12 colon, 27.1 µM. Besides, the GI50 was 19.4 µM in the experiment on MDA-MB-435, 12.5 µM in the experiment on SF-539 CNS and 36.5 µM in the experiment on SW-620 colon. The TGI is 0.446 µM in the experiment with A498 renal; above 83.1 µM in the experiment on BT-549 breast; above 100 µM with DU-145 prostate; above 100 µM in the experiment on HCC-2998 colon; above 100 µM with HT29 colon; above 100 µM in the experiment on KM12 colon. Further, the figures for the TGI in the experiment with MDA-MB-435, with SF-539 CNS and in the experiment on SW-620 colon were above 100 µM, above 96 µM and above 100 µM, respectively.

Regarding `CN(C)/C=C/c1nnc([N+](=O)[O-])s1`, the TGI in the experiment with A498 renal came out at 67.6 µM; in the experiment on BT-549 breast, 34.7 µM; in the experiment on DU-145 prostate, 30.8 µM; in the experiment with HCC-2998 colon, 33.2 µM; in the experiment on HT29 colon, 14.6 µM; with KM12 colon, 29.6 µM. The TGI is 14.2 µM in the experiment with MDA-MB-435, 23.4 µM with SF-539 CNS and 33.1 µM in the experiment with SW-620 colon.

With `COc1c2c(c3c(c1CCC(=O)O)OC(C)(C)C=C3)OC(C)(C)C=C2`, the TGI in the experiment on A498 renal, with BT-549 breast, with DU-145 prostate, with EKVX NSCLC, with HCC-2998 colon and with HT29 colon was above 100 µM throughout. Besides, the TGI in the experiment with KM12 colon, with MDA-MB-435 and in the experiment with SW-620 colon was above 100 µM throughout.

Regarding `O=C(CC(=O)CC(O)(C(F)(F)F)C(F)(F)F)CC(O)(C(F)(F)F)C(F)(F)F`, the TGI in the experiment with A498 renal, in the experiment with BT-549 breast, with DU-145 prostate, in the experiment on EKVX NSCLC, in the experiment on HT29 colon and in the experiment with KM12 colon was above 10 µM throughout. Further, the TGI with MDA-MB-435, in the experiment on SF-539 CNS and with SW-620 colon was above 10 µM throughout.

On to `COC(=O)[C@H](Cc1cn(C)cn1)NC(=O)[C@H](Cc1c[nH]c2ccccc12)NC(=O)Nc1cc(C(F)(F)F)cc(C(F)(F)F)c1`, for which the GI50 in the experiment with A498 renal, with BT-549 breast, with DU-145 prostate, with HCC-2998 colon, in the experiment on HT29 colon and with KM12 colon was above 10 µM in each case. In addition, the GI50 in the experiment on MDA-MB-435, with SF-539 CNS and with SW-620 colon was above 10 µM in each case. Further, the TGI with A498 renal, with BT-549 breast, in the experiment with DU-145 prostate, in the experiment with HCC-2998 colon, in the experiment with HT29 colon and with KM12 colon was above 10 µM in each case. Moreover, the TGI with MDA-MB-435, in the experiment with SF-539 CNS and in the experiment on SW-620 colon was above 10 µM throughout.
